These are literature values, as cited in patent US20160052846A1, “METHOD OF DEMULSIFYING AND PURIFYING ORGANIC PRODUCTS FROM AN EMULSION” (CODEXIS, INC., priority 2012, published 2016).

Where two headings read alike, the source gives them in different places.

For this data set the following is noted: for Water sol: in words, no temperature.

Take `CC(C)C(C)O` (centres unmarked) [Sec iso amyl alcohol, 3-methylbutan-2-ol]: the Water sol result was “Slightly soluble”.
Consider `CCCC(C)O` (centres unmarked) [2-pentanol, pentan-2-ol], for which, where the note is “at 20° C.”, the “Water sol (g per 100 g)” value is 4 at 20 °C g per 100 g.
For the compound `CC(C)CO` [Isobutanol, 2-methylpropan-1-ol], where the note is “at 15° C.”, the “Water sol (g per 100 g)” value is 10 at 15 °C g per 100 g.
As to `CC(C)(C)CO` [Neopentyl alcohol, 2,2-dimethylpropan-1-ol], the Water sol result is “Slightly soluble”.
Turning to propan-1-ol [Propanol], the Water sol result is “soluble”.
Consider `CC(C)O` [Isopropanol, propan-2-ol], for which the Water sol result was “soluble”.
On to `CCCCCO` [Amyl alcohol, pentan-1-ol], for which the “Water sol (g per 100 g)” value (at 22° C.) is 2.7 at 22 °C g per 100 g.
On to `CC(C)CCO` [Isopentanol, 3-methylbutan-1-ol], for which, under “at 14° C.”, the “Water sol (g per 100 g)” value is 2 at 14 °C g per 100 g.
